# According to article PMC3998017, “Single cell imaging of Bruton's Tyrosine Kinase using an irreversible inhibitor” (Scientific Reports, 2014):
# Target: T1, Bruton's tyrosine kinase (BTK) (Homo sapiens, UniProt Q06187)
# T1 construct: purified BTK (76 kDa)
# Experiment: IC50 on purified BTK enzyme; also covalent labelling of purified BTK and of BTK in Toledo cells by denaturing gel fluorescence, blocked by Ibrutinib
# Type: biochemical
# T1 sequence (Q06187 2-659): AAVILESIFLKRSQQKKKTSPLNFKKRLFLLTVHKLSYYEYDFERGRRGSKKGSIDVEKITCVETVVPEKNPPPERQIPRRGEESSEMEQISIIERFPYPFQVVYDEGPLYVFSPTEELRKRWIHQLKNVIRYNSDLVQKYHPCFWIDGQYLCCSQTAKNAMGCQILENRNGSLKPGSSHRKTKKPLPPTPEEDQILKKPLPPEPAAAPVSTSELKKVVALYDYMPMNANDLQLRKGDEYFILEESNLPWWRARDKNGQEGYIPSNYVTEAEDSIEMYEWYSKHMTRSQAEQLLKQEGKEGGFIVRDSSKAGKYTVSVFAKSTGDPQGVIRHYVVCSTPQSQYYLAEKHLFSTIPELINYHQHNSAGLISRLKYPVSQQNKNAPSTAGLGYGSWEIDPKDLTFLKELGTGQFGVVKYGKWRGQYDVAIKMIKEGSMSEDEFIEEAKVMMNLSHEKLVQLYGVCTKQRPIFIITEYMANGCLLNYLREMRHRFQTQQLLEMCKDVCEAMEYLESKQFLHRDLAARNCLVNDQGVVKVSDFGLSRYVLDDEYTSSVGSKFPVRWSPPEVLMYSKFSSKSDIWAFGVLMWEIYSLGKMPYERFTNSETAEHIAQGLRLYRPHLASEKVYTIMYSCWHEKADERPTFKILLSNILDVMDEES
smiles,measurement,value
"Cc1cc(C)n2c1C=C1C=CC(CCC(=O)NC/C=C/C(=O)N3CCC[C@@H](n4nc(-c5ccc(Oc6ccccc6)cc5)c5c(N)ncnc54)C3)=[N+]1[B-]2(F)F [compound 7, (R,E)-3-(3-((4-(3-(4-amino-3-(4-phenoxyphenyl)-1H-pyrazolo[3,4-d]pyrimidin-1-yl)piperidin-1-yl)-4-oxobut-2-en-1-yl)amino)-3-oxopropyl)-5,5-difluoro-7,9-dimethyl-5H-dipyrrolo[1,2-c:2′,1′-f][1,3,2]diazaborinin-4-ium-5-uide]",IC50,~200 nM
